Experimental data published in patent US7662825B2, “N-pyrazinyl-phenylsulphonamides and their use in the treatment of chemokine mediated diseases” (AstraZeneca AB, priority 2002, dated 2010).

Target: T1, human recombinant CCR4 receptor (Homo sapiens, UniProt P51679)
T1 construct: host or cells: CHO-K1
T1 sequence (P51679 1-360): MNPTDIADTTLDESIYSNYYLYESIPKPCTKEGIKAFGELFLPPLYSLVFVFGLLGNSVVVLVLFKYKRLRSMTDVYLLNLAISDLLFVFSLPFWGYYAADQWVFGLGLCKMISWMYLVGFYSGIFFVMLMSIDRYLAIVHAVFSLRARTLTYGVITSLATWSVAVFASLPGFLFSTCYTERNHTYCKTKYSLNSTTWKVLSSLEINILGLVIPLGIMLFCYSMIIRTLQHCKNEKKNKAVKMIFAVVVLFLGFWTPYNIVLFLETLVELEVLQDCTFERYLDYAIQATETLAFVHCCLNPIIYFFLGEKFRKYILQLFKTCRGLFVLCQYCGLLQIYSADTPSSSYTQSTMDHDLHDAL
Assay: FMAT whole cell binding assay (FB-MDC binding to cells)
Details: CHO-K1 cells stably expressing human recombinant CCR4; inhibition of binding of fluorescent FB-MDC, two hours at room temperature
Protocol: FMAT Whole Cell Binding Assay
CHO—K1 cells stably expressing the human recombinant CCR4 receptor (Euroscreen; Brussels, Belgium) were cultured in NUT.MIX.F—12(HAM) medium with glutamax-1, containing 10% (v/v) foetal bovine serum and 400 μg ml^−1 geneticin.
Cells were harvested at approximately 70% confluence by treatment with a cell dissociation buffer, and seeded at 5×10^3 cells/100 μl culture medium into wells of a black Costar clear-bottomed 96-well microtitre plates. Plates were incubated overnight at 37° C. in 5% CO2 and used the following day.
Before use, the cell plates were washed twice with 100 μl Hanks balanced salt solution (HBSS). To each well was then added 65 μl of HBSS, 10 μL of 10% DMSO in HBSS±test compound and then 25 μL of 2.8 nM FB-MDC (Applied Biosystems). This fluorescent probe was prepared from a 10 μM stock in 0.08% (v/v) TFA/16% (v/v) acetonitrile, diluted into HBSS.
After two hours incubation in the dark at room temperature, the plates were analysed in an FMAT8100 reader (Applied Biosystems) to measure fluorescence that was associated with binding of FB-MDC to the cells.

Row | SMILES | IC50 [nM]
1 | COc1nc(CN2CCOCC2)cnc1NS(=O)(=O)c1cccc(Cl)c1Cl [Example 186, 2,3-Dichloro-N-[3-methoxy-5-(4-morpholinylmethyl)-2-pyrazinyl]benzenesulphonamide] | 631
2 | COC(=O)c1nc(OC)c(NS(=O)(=O)c2cccc(Cl)c2Cl)nc1C [Example 119, 5-(2,3-Dichlorobenzenesulphonylamino)-6-methoxy-3-methylpyrazine-2-carboxylic aicd, methyl ester] | 63.1

System: not given
Assay: not given
Details: not given

Row | SMILES | melting point [°C]
3 | COC(=O)c1nc(OC)c(NS(=O)(=O)c2cccc(Cl)c2Cl)nc1C [Example 119, 5-(2,3-Dichlorobenzenesulphonylamino)-6-methoxy-3-methylpyrazine-2-carboxylic aicd, methyl ester] | 149 to 150
4 | Cc1cnc(NS(=O)(=O)c2cccc(Cl)c2Cl)c(OCc2cccnc2)n1 [Example 24, 2,3-Dichloro-N-[5-methyl-3-(3-pyridinylmethoxy)-2-pyrazinyl]benzenesulphonamide] | 160 to 161
5 | COc1nc(C)cnc1NS(=O)(=O)c1ccc(Cl)c(Cl)c1 [Example 48, 3,4-Dichloro-N-(3-methoxy-5-methyl-2-pyrazinyl)benezenesulphonamide] | 148 to 149
6 | COc1nc(Cl)c(Cl)nc1NS(=O)(=O)c1ccc(Cl)cc1Cl [Example 63, 2,4-Dichloro-N-(5,6-dichloro-3-methoxy-2-pyrazinyl)benzenesulphonamide] | 171 to 172
7 | COc1nc(OC)c(NS(=O)(=O)c2cccc(Cl)c2Cl)nc1Cl [Example 66, 2,3-Dichloro-N-(6-chloro-3,5-dimethoxy-2-pyrazinyl)benzenesulphonamide] | 163 to 165
8 | COc1nc(Oc2ccc(C(=O)O)cc2)cnc1NS(=O)(=O)c1cccc(Cl)c1Cl [Example 73, 4-[5-(2,3-Dichlorobenzenesulphonylamino)-6-methoxy-2-pyrazinyloxy]benzoic acid] | 186 to 187
9 | COc1nccnc1NS(=O)(=O)c1ccc(F)c(Cl)c1Cl [Example 207, 2,3-Dichloro-4-fluoro-N-(3-methoxy-2-pyrazinyl)benzenesulphonamide] | 192 to 194
10 | Cn1cc(COc2nc(Br)cnc2NS(=O)(=O)c2cccc(Cl)c2Cl)ccc1=O [Example 32, N-[5-Bromo-3-(1-methyl-6-oxo-1,6-dihydro-3-pyridinylmethoxy)-2-pyrazinyl]-2,3-dichlorobenzenesulphonamide] | 169 to 170
11 | COc1nc(C(F)F)cnc1NS(=O)(=O)c1cccc(Cl)c1Cl [Example 206, 2,3-Dichloro-N-(5-difluoromethyl-3-methoxy-2-pyrazinyl)benzenesulphonamide] | 117 to 118
12 | COc1nc(SCCN(C)C)cnc1NS(=O)(=O)c1cccc(Cl)c1Cl [Example 205, 2,3-Dichloro-N-{5-[2-(dimethylamino)ethylsulphanyl]-3-methoxy-2-pyrazinyl]benzenesulphonamide] | 117 to 118
13 | COc1nc(Cl)c(Cl)nc1NS(=O)(=O)c1ccccc1Cl [Example 60, 2-Chloro-N-(5,6-dichloro-3-methoxy-2-pyrazinyl)benzenesulphonamide] | 217 to 218
14 | COc1nc(Br)cnc1NS(=O)(=O)c1ccc(F)c(Cl)c1Cl [Example 185, N-(5-Bromo-3-methoxypyrazinyl)-2,3-dichloro-4-fluorobenzenesulphonamide] | 208 to 211
15 | Cc1cnc(NS(=O)(=O)c2cccc(Cl)c2Cl)c(OCc2cc(C)on2)n1 [Example 21, 2,3-Dichloro-N-[5-methyl-3-(5-methyl-3-isoxazolylmethoxy)-2-pyrazinyl]benzenesulphonamide] | 155 to 156
16 | COC(=O)CSc1cnc(NS(=O)(=O)c2cccc(Cl)c2Cl)c(OC)n1 [Example 82, [5-(2,3-Dichlorobenzenesulphonylamino)-6-methoxy-2-pyrazinylsulphanyl]acetic acid methyl ester] | 152 to 153
17 | COc1nc(Cl)c(Cl)nc1NS(=O)(=O)c1cccc(Cl)c1C [Example 58, 3-Chloro-N-(5,6-dichloro-3-methoxy-2-pyrazinyl)-2-methylbenzenesulphonamide] | 177 to 178
18 | COc1nc(NCCNC(C)=O)c(Cl)nc1NS(=O)(=O)c1cccc(Cl)c1Cl [Example 76, N-{2-[3-Chloro-5-(2,3-dichlorobenzenesulphonylamino)-6-methoxy-2-pyrazinylamino]ethyl}acetamide] | 150 to 152

Row | SMILES | melting point [°C]
19 | O=S(=O)(Nc1ncc(Cl)nc1OCc1cccc(CO)n1)c1cccc(Cl)c1Cl [Example 143, 2,3-Dichloro-N-[5-chloro-3-{[6-(hydroxymethyl)-2-pyridinyl]methoxy}-2-pyrazinyl]benzenesulphonamide] | 220
20 | O=S(=O)(Nc1ncc(Cl)nc1OCc1cccnc1)c1cccc(Cl)c1Cl [Example 36, N-[5-Chloro-3-(3-pyridinylmethoxy)-2-pyrazinyl]-2,3-dichlorobenzenesulphonamide] | 200 to 204
21 | COc1nc(SCC(N)=O)cnc1NS(=O)(=O)c1cccc(Cl)c1Cl [Example 169, 2-[5-(2,3-Dichlorobenzenesulphonylamino)-6-methoxy-2-pyrazinylsulphanyl]acetamide] | 163 to 164
22 | COc1nc(-c2cnccn2)cnc1NS(=O)(=O)c1cccc(Cl)c1Cl [Example 72, 2,3-Dichloro-N-[6-methoxy-5-([2,2′]bipyrazinylyl)]benzenesulphonamide] | 199 to 200
23 | CCCCOc1nc(Cl)cnc1NS(=O)(=O)c1cccc(Cl)c1Cl [Example 91, N-(3-Butoxy-5-chloro-2-pyrazinyl)-2,3-dichlorobenzenesulphonamide] | 133 to 134
24 | COc1nc(SCCO)cnc1NS(=O)(=O)c1cccc(Cl)c1Cl [Example 177, 2,3-Dichloro-N-[5-(2-hydroxyethylsulphanyl)-3-methoxy-2-pyrazinyl]benzenesulphonamide] | 180 to 181
25 | COc1nc(C)c(C)nc1NS(=O)(=O)c1cccc(Cl)c1Cl [Example 65, 2,3-Dichloro-N-(3-methoxy-5,6-dimethyl-2-pyrazinyl)benzenesulphonamide] | 165 to 166
26 | COc1nc(SCc2ccccc2Cl)cnc1NS(=O)(=O)c1cccc(Cl)c1Cl [Example 84, 2,3-Dichloro-N-[5-(2-chlorobenzylsulphanyl)-3-methoxy-2-pyrazinyl]benzenesulphonamide] | 119 to 120
27 | COc1nc(OCCN)cnc1NS(=O)(=O)c1cccc(Cl)c1Cl [Example 115, N-[5-(2-Aminoethoxy)-3-methoxy-2-pyrazinyl]-2,3-dichlorobenzenesulphonamide] | 200 to 205
28 | COc1nc(C)cnc1NS(=O)(=O)c1ccc(Cl)cc1 [Example 46, 4-Chloro-N-(3-methoxy-5-methyl-2-pyrazinyl)benezenesulphonamide] | 155 to 156
29 | CSCCOc1nc(Cl)cnc1NS(=O)(=O)c1cccc(Cl)c1Cl [Example 90, 2,3-Dichloro-N-[5-chloro-3-(2-methylsulphanylethoxy)-2-pyrazinyl]benzenesulphonamide] | 140 to 141
30 | COc1ncc(Cl)nc1NS(=O)(=O)c1ccc(Cl)cc1 [Example 40, 4-Chloro-N-(6-chloro-3-methoxy-2-pyrazinyl)benezenesulphonamide] | 174 to 175
31 | C=CCOc1nc(Cl)cnc1NS(=O)(=O)c1cccc(Cl)c1Cl [Example 187, N-(3-Allyloxy-5-chloro-2-pyrazinyl)-2,3-dichlorobenzenesulphonamide] | 145 to 146
32 | CN(C)Cc1ccc(COc2nc(Cl)cnc2NS(=O)(=O)c2cccc(Cl)c2Cl)o1 [Example 182, 2,3-Dichloro-N-[5-chloro-3-(5-dimethylaninomethyl-2-furanylmethoxy)-2-pyrazinyl]benzenesulphonamide] | 209 to 210
33 | COc1ncc(Cl)nc1NS(=O)(=O)c1cccc(Cl)c1 [Example 39, 3-Chloro-N-(6-chloro-3-methoxy-2-pyrazinyl)benezenesulphonamide] | 126 to 127
34 | COc1nc(SC)cnc1NS(=O)(=O)c1cccc(Cl)c1Cl [Example 80, 2,3-Dichloro-N-(3-methoxy-5-methylsulphanyl-2-pyrazinyl)benzenesulphonamide] | 141 to 142
